Consider 16 compounds from paper PMC8815882, “Screening the pandemic response box identified benzimidazole carbamates, Olorofim and ravuconazole as promising drug candidates for the treatment of eumycetoma” (PLoS Neglected Tropical Diseases, 2022).

Read-outs that look alike come from different tables or passages of the source.

In the assay the test system is M. mycetomatis genome strain MM55. Put plainly: CLSI M38-A2 based in vitro susceptibility screening (XTT or resazurin), growth at fixed concentration. In kind it is cell-based, Madurella mycetomatis. The note with it: Madurella mycetomatis; for Percent fungal survival at 100 µM: read-out: Percentage survival at 100um, 100 uM A (second replicate column). (In general: Formazan colour is commonly taken as a measure of viable cells.)

Where [1] appears, read: mean of three, M. mycetomatis MM55, read-out: Percentage survival at 25um, 25 uM mean.
[2] abbreviates: replicate A, M. mycetomatis MM55, read-out: Percentage survival at 25um, 25 um A.
Where [3] appears, read: replicate B, M. mycetomatis MM55, read-out: Percentage survival at 25um, 25 uM B.
The mark [4] stands for this setting: replicate C, M. mycetomatis MM55, read-out: Percentage survival at 25um, 25 uM C.
[5] abbreviates: mean of three, M. mycetomatis MM55, read-out: Percentage survival at 100um, 100 uM mean.
The mark [6] stands for this setting: replicate 1, M. mycetomatis MM55, read-out: Percentage survival at 100um, 100 uM A (first replicate column).
[7] abbreviates: replicate 2, M. mycetomatis MM55.
Where [8] appears, read: replicate 3, M. mycetomatis MM55, read-out: Percentage survival at 100um, 100 uM A (third replicate column).
Where [9] appears, read: mean of three replicates, read-out: Percentage survival at 25um, 25 uM mean.
The mark [10] stands for this setting: replicate A, read-out: Percentage survival at 25um, 25 um A.
Where [11] appears, read: replicate B, read-out: Percentage survival at 25um, 25 uM B.
Setting [12] is: replicate C, read-out: Percentage survival at 25um, 25 uM C.
[13] abbreviates: first replicate column, read-out: Percentage survival at 100um, 100 uM A.
[14] abbreviates: mean of three replicates, read-out: Percentage survival at 100um, 100 uM mean.
Where [15] appears, read: second replicate column, read-out: Percentage survival at 100um, 100 uM A.
The mark [16] stands for this setting: third replicate column, read-out: Percentage survival at 100um, 100 uM A.
Setting [17] is: mean, read-out: Percentage survival at 25um, 25 uM mean.
Setting [18] is: mean, read-out: Percentage survival at 100um, 100 uM mean.
Where [19] appears, read: replicate (first column), read-out: Percentage survival at 100um, 100 uM A.
[20] abbreviates: replicate (second column), read-out: Percentage survival at 100um, 100 uM A.
The mark [21] stands for this setting: replicate (third column), read-out: Percentage survival at 100um, 100 uM A.
The mark [22] stands for this setting: mean of replicates, MM55, read-out: Percentage survival at 25um, 25 uM mean.
Setting [23] is: replicate A, MM55, read-out: Percentage survival at 25um, 25 um A.
[24] abbreviates: replicate B, MM55, read-out: Percentage survival at 25um, 25 uM B.
Setting [25] is: replicate C, MM55, read-out: Percentage survival at 25um, 25 uM C.
Setting [26] is: mean of replicates, MM55, read-out: Percentage survival at 100um, 100 uM mean.
The mark [27] stands for this setting: replicate 1, MM55, read-out: Percentage survival at 100um, 100 uM A.
[28] abbreviates: replicate 2, MM55, read-out: Percentage survival at 100um, 100 uM A.
Where [29] appears, read: replicate 3, MM55, read-out: Percentage survival at 100um, 100 uM A.

Take `NC(=O)c1cnc2ccc(S(=O)(=O)c3ccccc3)cc2c1Nc1ccc(O)cc1` [MMV1580848]: the activity at 25 µM under setting [1] came to 78.8%, the activity at 25 µM under setting [2] was 86.9%, the activity at 25 µM under setting [3] stood at 78.3% and the activity at 25 µM under setting [4] was determined as 71.3%. In addition, the activity at 100 µM is 83.2% under setting [5], 89.3% under setting [6] and 74.3% under setting [8]. Also, the Percent fungal survival at 100 µM under setting [7] came out at 86.1%.

As for `CSC[C@H]1CN(Cc2c[nH]c3c(N)ncnc23)C[C@@H]1O` [MMV1578565], the activity at 25 µM reads like this: under setting [1], 80.1%; under setting [2], 86.7%; under setting [3], 77.5%; under setting [4], 76%. Also, the activity at 100 µM reads like this: under setting [5], 87.9%; under setting [6], 88.9%; under setting [8], 91.9%. In addition, the Percent fungal survival at 100 µM under setting [7] was found to be 83%.

Turning to `COc1ccccc1NC(=O)c1ccccc1Sc1ccc([N+](=O)[O-])cc1` [MMV1580484], the activity at 25 µM reads like this: under setting [9], 65.2%; under setting [10], 65.9%; under setting [11], 69.7%; under setting [12], 60.2%. Besides, the activity at 100 µM is 60.9% under setting [13], 60.4% under setting [14], 56% under setting [15] and 64.4% under setting [16].

`Cc1ncc([N+](=O)[O-])n1CC(C)O` (centres unmarked) [MMV002287]: the activity at 25 µM was found to be 111% under setting [9], 140% under setting [10], 90.9% under setting [11] and 103% under setting [12]. Moreover, the activity at 100 µM worked out at 100% under setting [14]; 89.4% (replicate 1, read-out: Percentage survival at 100um, 100 uM A (first replicate column)); 90.2% (replicate 3, read-out: Percentage survival at 100um, 100 uM A (third replicate column)). Besides, where the note is “replicate 2”, the Percent fungal survival at 100 µM was 122%.

On to `CCN(CC)S(=O)(=O)c1ccc(Cl)c(C(=O)Nc2sc3c(c2C#N)CCCC3)c1` [MMV1634384], for which the activity at 25 µM is, setting by setting: (mean of replicates, read-out: Percentage survival at 25um, 25 uM mean) 89.4%; under setting [10], 87.9%; under setting [11], 80.1%; under setting [12], 100%. Moreover, the activity at 100 µM (mean of replicates, read-out: Percentage survival at 100um, 100 uM mean) is 89.5%; the activity at 100 µM (replicate 1, read-out: Percentage survival at 100um, 100 uM A) turned out to be 89.4%; the activity at 100 µM (replicate 2, read-out: Percentage survival at 100um, 100 uM A) amounted to 89.9%; the activity at 100 µM (replicate 3, read-out: Percentage survival at 100um, 100 uM A) is 89.3%.

Regarding `Nc1cnn(C2OC(CO)C(O)C2O)c(=O)n1` (centres unmarked) [MMV1580495], the activity at 25 µM by setting is: under setting [9], 87.3%; under setting [10], 82%; under setting [11], 95.9%; under setting [12], 84%. In addition, the activity at 100 µM under setting [13] stood at 88.8%, the activity at 100 µM under setting [14] worked out at 82%, the activity at 100 µM under setting [15] amounted to 84.2% and the activity at 100 µM under setting [16] was determined as 72.9%.

Turning to `CCCCSc1nc(N)c2[nH]c(=O)c(=O)n(Cc3ccccc3)c2n1` [MMV1579783], the activity at 25 µM was found to be 74.7% under setting [17], 95.5% under setting [10], 58.6% under setting [11] and 70% under setting [12]. Also, the activity at 100 µM is, setting by setting: under setting [18], 54.9%; under setting [19], 84%; under setting [20], 5.11%; under setting [21], 75.6%.

For `CC(C)(C)OC(=O)NCc1ccc(C(=O)N[C@H]2CCOC2=O)cc1` [MMV1581547], the activity at 25 µM by setting is: under setting [1], 87.5%; under setting [2], 95.2%; under setting [3], 90.1%; under setting [4], 77.3%. Further, the activity at 100 µM runs as follows: under setting [5], 113%; under setting [6], 94.9%; under setting [8], 89.2%. Besides, the Percent fungal survival at 100 µM under setting [7] amounted to 156%.

Consider `O=S(=O)(Nc1ccc(O)cc1)c1cccc2cccnc12` [MMV251679], for which the activity at 25 µM is, setting by setting: under setting [9], 86.4%; under setting [10], 84.9%; under setting [11], 92.9%; under setting [12], 81.3%. For the same compound, the activity at 100 µM by setting is: under setting [13], 98.4%; under setting [14], 91.6%; under setting [15], 87.2%; under setting [16], 89.3%.

Regarding `OC[C@@H]1CC[C@H](n2cnc3c(O)ncnc32)O1` [MMV637306], the activity at 25 µM runs as follows: under setting [9], 91.8%; under setting [10], 101%; under setting [11], 91%; under setting [12], 83.2%. Besides, the activity at 100 µM worked out at 90.3% under setting [13], 87.3% under setting [14], 80.5% under setting [15] and 91.2% under setting [16].

Regarding `CCN1CCN(Cc2nc3ccc([N+](=O)[O-])cc3c(=O)n2-c2ccccc2F)CC1` [MMV275100], the activity at 25 µM is 81.2% under setting [22], 83% under setting [23], 93.5% under setting [24] and 67.1% under setting [25]. For the same compound, the activity at 100 µM under setting [26] was 72.6%, the activity at 100 µM under setting [27] was 70.7%, the activity at 100 µM under setting [28] is 69.8% and the activity at 100 µM under setting [29] came to 77.1%.

Regarding `CN(C)CCCNC(=O)c1ccc(-c2cc(O)c3ncccc3c2)cc1` [MMV1580488], the activity at 25 µM runs as follows: under setting [22], 54.3%; under setting [23], 72%; under setting [24], 76.2%; under setting [25], 14.8%. Besides, the activity at 100 µM by setting is: under setting [26], 9.5%; under setting [27], 10.5%; under setting [28], 5.72%; under setting [29], 12.3%.

As for `O=C(NNC(=S)Nc1ccc(Cl)cc1)c1ccncc1` [MMV1782227], the activity at 25 µM amounted to 85.9% under setting [17], 105% under setting [10], 86.1% under setting [11] and 67% under setting [12]. Further, the activity at 100 µM by setting is: under setting [18], 121%; under setting [19], 128%; under setting [20], 90.7%; under setting [21], 144%.

Consider `CCNC(=O)Nc1cc2c(-c3ccnc(C)c3)ccc(CNC(=O)OC)c2cn1` [MMV1634390], for which the activity at 25 µM under setting [1] stood at 86.2%, the activity at 25 µM under setting [2] was 98.4%, the activity at 25 µM under setting [3] was 81% and the activity at 25 µM under setting [4] came to 79.2%. Also, the activity at 100 µM by setting is: under setting [5], 52.4%; under setting [6], 60.4%; under setting [8], 89.5%. For the same compound, the Percent fungal survival at 100 µM under setting [7] was 7.35%.

On to `c1ccc(-c2nnc3c4ccccc4c(N4CCNCC4)nn23)cc1` [MMV1581551], for which the activity at 25 µM turned out to be 84.6% under setting [17], 93.2% under setting [10], 85.9% under setting [11] and 74.8% under setting [12]. Besides, the activity at 100 µM under setting [18] stood at 37%, the activity at 100 µM under setting [19] turned out to be 10.9%, the activity at 100 µM under setting [20] is 52.3% and the activity at 100 µM under setting [21] came out at 47.9%.

On to `O=S(=O)(NCB(O)O)c1cc2c(Cl)ccc(Cl)c2s1` [MMV1580841], for which the activity at 25 µM amounted to 69.4% under setting [17], 79.1% under setting [10], 74.7% under setting [11] and 54.3% under setting [12]. The activity at 100 µM was determined as 70.2% under setting [18], 88.2% under setting [19], 69.4% under setting [20] and 53% under setting [21].
